The text below walks through data of ChEMBL document CHEMBL4033638, “Effect of natural and semi-synthetic cadinanes from Heterotheca inuloides on NF-κB, Nrf2 and STAT3 signaling pathways and evaluation of their in vitro cytotoxicity in human cancer cell lines” (Bioorg Med Chem, 2017).

Assay [1] can be described thus: Inhibition of TNFalpha-stimulated NFkappaB (unknown origin) expressed in mouse NIH-3T3-KBFLuc cells at 50 uM after 6 hrs by luciferase reporter gene assay relative to control. The assay is classed as cell-based. As to conditions: Homo sapiens. In general terms: Reporter assays use an easily measured gene product as a stand-in for the process of interest.
Assay [2] has as its target T1, Nuclear factor erythroid 2-related factor 2 (Homo sapiens) (UniProt Q16236).
T1 sequence (whole entry): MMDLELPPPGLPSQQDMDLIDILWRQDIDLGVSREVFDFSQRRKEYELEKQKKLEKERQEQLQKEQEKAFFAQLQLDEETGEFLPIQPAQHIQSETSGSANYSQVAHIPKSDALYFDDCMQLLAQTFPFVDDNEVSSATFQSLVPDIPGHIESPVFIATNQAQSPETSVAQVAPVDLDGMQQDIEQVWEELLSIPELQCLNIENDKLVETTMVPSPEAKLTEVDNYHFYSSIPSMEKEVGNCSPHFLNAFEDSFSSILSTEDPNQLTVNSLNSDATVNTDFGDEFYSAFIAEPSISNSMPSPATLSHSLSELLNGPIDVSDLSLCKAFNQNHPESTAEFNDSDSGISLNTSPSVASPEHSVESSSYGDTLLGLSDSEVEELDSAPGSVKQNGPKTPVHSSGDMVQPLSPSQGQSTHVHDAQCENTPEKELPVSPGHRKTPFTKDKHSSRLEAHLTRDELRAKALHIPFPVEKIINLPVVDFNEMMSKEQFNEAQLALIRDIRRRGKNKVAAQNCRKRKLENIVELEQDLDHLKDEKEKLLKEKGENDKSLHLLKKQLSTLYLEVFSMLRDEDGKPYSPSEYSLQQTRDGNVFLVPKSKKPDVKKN
The assay can be described thus: Activation of Nrf2 in human HaCaT-ARE-Luc cells at 50 uM after 6 hrs by luciferase reporter gene assay relative to control. The assay is classed as cell-based.

In assay [3] the target is Signal transducer and activator of transcription 3 (Homo sapiens) (UniProt P40763). The assay can be described thus: Inhibition of IFNgamma-stimulated STAT3 (unknown origin) activation expressed in human HeLa cells at 50 uM after 6 hrs by luciferase reporter gene assay relative to control. The format is cell-based.
In the next assay the test system is U-251. The assay can be described thus: Antiproliferative activity against human U251 cells at 50 uM after 48 hrs by sulforhodamine B assay relative to control. As to conditions: for inhibition at 50 µM: U-251, 48 h. The assay is classed as functional. A general note: In SRB staining, fixed cells bind dye roughly in proportion to their protein.
The next assay has as its system PC-3. The assay can be described thus: Antiproliferative activity against human PC3 cells at 50 uM after 48 hrs by sulforhodamine B assay relative to control. To be noted: PC-3, 48 h. The assay is classed as functional.
The next assay concerns K562. The assay can be described thus: Antiproliferative activity against human K562 cells at 50 uM after 48 hrs by sulforhodamine B assay relative to control. The format is functional. As to conditions: for inhibition at 50 µM: K562, 48 h.
The test system of a further assay is HCT-15. The assay can be described thus: Antiproliferative activity against human HCT15 cells at 50 uM after 48 hrs by sulforhodamine B assay relative to control. The assay is classed as functional. To be noted: for inhibition at 50 µM: HCT-15, 48 h.
The subject of the next assay is MCF7. The assay can be described thus: Antiproliferative activity against human MCF7 cells at 50 uM after 48 hrs by sulforhodamine B assay relative to control. The format is functional. As to conditions: MCF7, 48 h.
The test system of another assay is SK-LU-1. The assay can be described thus: Antiproliferative activity against human SK-LU-1 cells at 50 uM after 48 hrs by sulforhodamine B assay relative to control. The assay is classed as functional. As to conditions: SK-LU-1, 48 h.

SMILES strings stand for the structures. The source made the active and inactive calls. The calls are words filed in the database; no cut-off is given here.

Chain of Signal transducer and activator of transcription 3 (Homo sapiens) (P40763 whole entry): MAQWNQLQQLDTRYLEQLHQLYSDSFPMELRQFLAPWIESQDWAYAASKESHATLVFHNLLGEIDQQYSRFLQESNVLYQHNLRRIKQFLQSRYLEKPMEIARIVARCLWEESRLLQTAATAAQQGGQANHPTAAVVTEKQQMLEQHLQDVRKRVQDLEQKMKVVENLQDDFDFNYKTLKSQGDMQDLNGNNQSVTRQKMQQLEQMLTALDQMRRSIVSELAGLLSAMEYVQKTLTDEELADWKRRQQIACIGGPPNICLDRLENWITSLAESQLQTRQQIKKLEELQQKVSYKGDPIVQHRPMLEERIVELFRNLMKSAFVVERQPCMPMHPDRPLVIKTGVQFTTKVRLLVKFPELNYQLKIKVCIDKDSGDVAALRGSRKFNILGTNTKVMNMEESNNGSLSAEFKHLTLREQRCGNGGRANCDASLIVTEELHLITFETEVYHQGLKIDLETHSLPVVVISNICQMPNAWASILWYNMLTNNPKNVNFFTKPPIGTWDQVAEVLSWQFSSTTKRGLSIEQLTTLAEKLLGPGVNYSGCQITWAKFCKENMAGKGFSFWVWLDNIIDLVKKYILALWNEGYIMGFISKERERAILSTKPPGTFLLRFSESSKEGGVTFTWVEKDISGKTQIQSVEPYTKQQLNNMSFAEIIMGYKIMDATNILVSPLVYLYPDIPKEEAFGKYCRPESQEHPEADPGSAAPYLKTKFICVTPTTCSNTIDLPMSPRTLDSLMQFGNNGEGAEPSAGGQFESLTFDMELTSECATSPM

One may read the inhibition as how much of the control response was suppressed. As for `CC1=CC[C@H](C(C)C)[C@H]2C=C(C(=O)O)CC=C12`, the inhibition in assay [1] was 12.3%; in assay [3], 3.6%. This molecule yielded a fold change (FC) in assay [2] of 1.9.
Regarding `COc1ccc(C(=O)Oc2cc3c(C)ccc(C(C)C)c3cc2C)cc1`, the values for the inhibition in assay [1] and in [3] were 26.9% and 2.5%, respectively. In addition, the fold change (FC) in assay [2] came out at 1.3. Also, the inhibition at 50 µM in the assay with U-251 stood at 42.6%; in the assay with PC-3, 10.4%; in the assay with K562, 88.6%; in the assay with HCT-15 it was 84%; with MCF7 it was 93.4%; with SK-LU-1, 32.8%.
Regarding `CC1=CC[C@H](C(C)C)c2cc(C(=O)O)ccc21`, the inhibition in assay [1] is 7.3%; in assay [3], 2.9%. The fold change (FC) in [2] came to 1.8.
`Cc1cc2c(C(C)C)ccc(C)c2cc1OC(=O)c1cccc(C(F)(F)F)c1`: the figures for the inhibition in assay [1] and in [3] were 4.8% and 2.7%, respectively. For the same molecule, the fold change (FC) in assay [2] was 1.9. Further, the inhibition result in the assay on U-251, with K562 and with HCT-15 was “inactive” each time. In addition, the values for the inhibition at 50 µM in the assay with PC-3, in the assay on MCF7 and with SK-LU-1 were 26.7%, 41.5% and 17.3%, respectively.
Turning to `CC1=CC[C@H](C(C)C)c2cc(C)c(OC(=O)c3ccccc3)cc21`, the values for the inhibition in assay [1] and in assay [3] were 47.2% and 2.4%, respectively. The molecule further returned a fold change (FC) in [2] of 6.6. Besides, the inhibition at 50 µM in the assay on U-251 worked out at 25.8%; with PC-3, 22.5%; in the assay with HCT-15, 49.5%; with MCF7, 60.7%; in the assay on SK-LU-1, 37%. In addition, in the assay on K562, the inhibition entry is “inactive”.
With `CC1=C2CCC(C(=O)O)=C[C@@H]2[C@@H](C(C)C)CC1`, the inhibition in [1] amounted to 5.9%; in assay [3], 3.8%. The molecule also yielded a fold change (FC) in assay [2] of 1.4.
`CC1=CC[C@H](C(C)C)c2cc(C)c(OC(=O)c3ccc(Cl)cc3)cc21`: the inhibition in [1] was 36.1%; in [3] it was 2.7%. The fold change (FC) in assay [2] amounted to 1.3. Moreover, the inhibition at 50 µM was determined as 25.6% in the assay with U-251; 34.1% in the assay with PC-3; 58.9% in the assay with K562; 47.4% in the assay with HCT-15; 79.7% in the assay on MCF7; 17.4% in the assay on SK-LU-1.
On to `Cc1cc2c(C(C)C)ccc(C)c2cc1OC(=O)c1cccc(Cl)c1`, for which the inhibition was found to be 25.6% in assay [1] and 1.8% in assay [3]. Moreover, the fold change (FC) in [2] worked out at 1.7. The inhibition at 50 µM in the assay on U-251 was 0.8%; with PC-3, 4.2%; in the assay with MCF7 it was 11.4%; in the assay on SK-LU-1, 11.6%. Moreover, the inhibition result in the assay with K562 and in the assay with HCT-15 was “inactive” each time.
For the molecule `Cc1cc2c(C(C)C)ccc(C=O)c2cc1O`, the values for the inhibition in assay [1] and in [3] were 40.1% and 3.5%, respectively. In assay [2], the fold change (FC) was found to be 1.6.
For `Cc1ccc2c(c1)C(=O)C(C(C)C)=C[C@@]2(C)O` the same measures were 11.1%, 2.4% and 1.7.
On the same counts, the results for `CC1=C[C@](O)(C(C)C)C(=O)c2cc(C)c(O)cc21` are 28.8%, 2.2% and 1.3.
Take `CC(C)[C@H]1CC[C@@](C)(O)c2ccc(C(=O)O)cc21`: the figures for the inhibition in assay [1] and in [3] were 6.7% and 3.8%, respectively. Also, the fold change (FC) in assay [2] worked out at 1.7.
On to `COc1c(C(C)C)cc(C)c2ccc(C)cc12`, for which the inhibition in [1] amounted to 26.5%; in assay [3], 0.9%. For the same molecule, in assay [2], the fold change (FC) amounted to 1.9.
